One block for each molecule: values may come before it.
Experiments:
MRL (1 pr/1 pr) mice [1] = settings: single administration of 20 mg/kg endoxan i.p. once a week, 8 weeks
Method: (§1) Ten weeks old male MRL (1 pr/1 pr) mice was used as experimental animals and DS prepared according to reference example 1 was used as an agent by dissolving it in sterile physiological saline solution on use.
(§2) Sterile physiological saline solution was administered in negative control group (non-treated group).
At the age of 10 weeks old, body weight of animals were weighed and blood samples were taken for determination of serum BUN (urea nitrogen) and serum creatinine. […] DS was daily, 5 times per week (neither on Saturday or on Sunday), administered into tail vein in mice using 1 ml disposable syringe at the dose level of 25 mg/kg/day. […] During administration, animals were daily observed carefully. After 8 weeks, blood samples were taken under anesthesia with Nembutal and animals were killed by exsanguination. Then, serum creatinine level, spleen weight and the weight of mesenteric lymph node were measured.

MRL (1 pr/1 pr) mice [2] = settings: single administration of 10 mg/kg endoxan
Method: as §1, §2
DS was daily, 5 times per week (neither on Saturday or on Sunday), administered into tail vein in mice using 1 ml disposable syringe at the dose level of 25 mg/kg/day. […] During administration, animals were daily observed carefully. After 8 weeks, blood samples were taken under anesthesia with Nembutal and animals were killed by exsanguination. Then, serum creatinine level, spleen weight and the weight of mesenteric lymph node were measured.
Treatment for enlarged spleen in MRL mice was tried. […] The dose of DS was 25 mg/kg in any case.

[3] = set-up: species or system SD male rats; settings: rat, in vivo
Method: X represents overlapping ◯ and ●.
Dermatan sulfate derived from crest and dermatan sulfate derived from bovine intestine (see reference example 2 in WO95/09188) were administered into tail vein of SD male rats and changes with the passage of time in the residual level of dermatan sulfate in blood were determined and the residual rate thereof to the initial level of dermatan sulfate on administration was calculated (see example 1 in the above International publication). […] Thus, since dermatan sulfate derived from crest or dermatan sulfate with the equivalent physical properties has a long life span in blood and sustained anti-inflammatory effects, a large dosage thereof is not required for the treatment and dermatan sulfate derived from crest or equivalent thereof is the most preferable.

[4] = system: MRL (1 pr/1 pr) mice with nephritis; assay: Mice SLE model-1: effects on renal function (serum BUN, creatinine); format: in vivo; settings: once per day, five times per week, 4 weeks
Method: As agents, DS or low molecular weight heparin ([…], Fragmin) prepared according to a method in reference example 1 was dissolved in sterile physiological saline solution on use. Blood samples were taken from 17 weeks old mice, only MRL mice with nephritis whose level of blood urea nitrogen (BUN) were high at the nearly same level were selected and divided into 4 groups, each group consisting of 5 mice. Sterile physiological saline solution was administered in one group as non-treated control group, 5 mg/kg of DS, 25 mg/kg of DS and 1 mg/kg of […] were administered into tail vein in another 3 groups, once per day and five times per week. […] Serum and plasma taken were used for determination of BUN, creatinine and fibrinogen and kidneys were used for histopathological examination. […] In FIG. 3b, * means that there is a significant difference with p<0.05 from non-treated control group by Bonferroni examination. Both of BUN and creatinine level of non-treated control group were higher than those of normal control group(C57BL/6), which made it clear that renal function thereof was impaired.

[5] = system: MRL (1 pr/1 pr) mice with nephritis; assay: Mice SLE model-1: histopathological observations of kidney (MC and DP glomeruli); format: in vivo; settings: 4 weeks
Method: As SLE model, 17 weeks old male MRL (1 pr/1 pr) mice were used, while C57BL/6 mice with the same age and sex were used as normal control. As agents, DS or low molecular weight heparin (LMWHep, Fragmin) prepared according to a method in reference example 1 was dissolved in sterile physiological saline solution on use.
Blood samples were taken from 17 weeks old mice, only MRL mice with nephritis whose level of blood urea nitrogen (BUN) were high at the nearly same level were selected and divided into 4 groups, each group consisting of 5 mice. Sterile physiological saline solution was administered in one group as non-treated control group, 5 mg/kg of DS, 25 mg/kg of DS and 1 mg/kg of LMWHep were administered into tail vein in another 3 groups, once per day and five times per week. […] Serum and plasma taken were used for determination of BUN, creatinine and fibrinogen and kidneys were used for histopathological examination.

[6] = system: MRL (1 pr/1 pr) mice with nephritis; assay: Mice SLE model-1: histopathological change of renal artery (angiitis); format: in vivo; settings: for angiitis intermediate degree, number of individual / angiitis serious degree, number of individual / angiitis slight degree, number of individual: 5 mice
[7] = system: MRL (1 pr/1 pr) mice with nephritis; assay: Mice SLE model-1: fibrinogen level in blood; format: in vivo
[8] = system: Lewis rats with experimental allergic encephalomyelitis; assay: Rat experimental allergic encephalomyelitis (EAE), multiple sclerosis model; format: in vivo; settings: 5 mg DS i.p. once a day since third day after immunization
Cri; CD-1 mice = assay: Toxicity test by single intravenous administration; format: in vivo
Method: Toxicity test by single intravenous administration of dermatan sulfate(1) Experimental method
As experimental animals, five weeks old female and male Cri; CD-1 mice (Japanese Charles-river (n=5 each) were used. The DS solution obtained by the same method as in reference example 1 was made isotonic using sterile distilled water and sterile physiological saline solution and single 2000 mg/kg of DS was administered intravenously into tail vein in mice and clinical observations were carried out for 14 days.

Molecule: O=P1(N(CCCl)CCCl)NCCCO1 (stereo not drawn) [endoxan, Cyclophosphamide]
serum creatinine level, compared with negative control group (MRL (1 pr/1 pr) mice [1]): did not exhibit any effect
spleen weight, compared with negative control group (MRL (1 pr/1 pr) mice [2]): did not give any effect

residual rate of dermatan sulfate in blood [3]: scarcely detected
Molecule: dermatan sulfate [reference compound]

Molecule: low molecular weight heparin [LMWHep, reference compound]
BUN level ([4]; 1 mg/kg tail vein): slightly improved
creatinine level ([4]; 1 mg/kg tail vein): slightly improved
ratio of DP glomeruli (number of DP glomeruli/total number of glomeruli) ([5]; 1 mg/kg): such an effect was not recognized
ratio of MC glomeruli (number of MC glomeruli/total number of glomeruli) ([5]; 1 mg/kg): slightly increased
histopathological evaluation of angiitis of renal artery, versus non-treated group ([6]; 1 mg/kg group): not a big difference
angiitis intermediate degree, number of individual ([6]; 1 mg/kg group): 1
angiitis serious degree, number of individual ([6]; 1 mg/kg group): 4
angiitis slight degree, number of individual ([6]; 1 mg/kg group): 0
suppression of increase of fibrinogen level in blood ([7]; 1 mg/kg group): did not scarcely recognized

Molecule: sodium salt of dermatan sulfate [DS]
residual rate of dermatan sulfate in blood [3]: about 10%
residual rate of dermatan sulfate in blood, compared with dermatan sulfate derived from bovine intestine [3]: twice as much
BUN level ([4]; 5 mg/kg tail vein): slightly improved
creatinine level ([4]; 5 mg/kg tail vein): slightly improved
BUN level ([4]; 25 mg/kg tail vein): slightly improved
creatinine level ([4]; 25 mg/kg tail vein, p<0.05 vs non-treated control): significantly improve
ratio of DP glomeruli (number of DP glomeruli/total number of glomeruli) ([5]; 5 mg/kg): clearly decreased in a dose-dependent manner
ratio of MC glomeruli (number of MC glomeruli/total number of glomeruli) ([5]; 5 mg/kg): slightly increased
ratio of DP glomeruli (number of DP glomeruli/total number of glomeruli) ([5]; 25 mg/kg): clearly decreased in a dose-dependent manner
ratio of MC glomeruli (number of MC glomeruli/total number of glomeruli) ([5]; 25 mg/kg): significantly increased
histopathological evaluation of angiitis of renal artery, versus non-treated group ([6]; 5 mg/kg group): not a big difference
angiitis intermediate degree, number of individual ([6]; 5 mg/kg group): 2
angiitis serious degree, number of individual ([6]; 5 mg/kg group): 3
angiitis slight degree, number of individual ([6]; 5 mg/kg group): 0
histopathological evaluation of angiitis of renal artery ([6]; 25 mg/kg group): individual with serious degree decreased and individual with intermediate and slight degree increased
angiitis intermediate degree, number of individual ([6]; 25 mg/kg group): 3
angiitis serious degree, number of individual ([6]; 25 mg/kg group): 1
angiitis slight degree, number of individual ([6]; 25 mg/kg group): 1
increase of fibrinogen level in blood ([7]; 5 mg/kg group): suppressed in a dose-dependent manner
increase of fibrinogen level in blood ([7]; 25 mg/kg group): suppressed in a dose-dependent manner
mean onset day [8]: 9.5±0.5
accumulated clinical scores ([8]; p<0.05 vs control group): 12.4±1.7
death after 14 days observation (Cri; CD-1 mice; single 2000 mg/kg i.v. tail vein, 5 female and 5 male mice): no death
lethal dose (Cri; CD-1 mice; single i.v. tail vein, mice, 14 days observation): more than 2000 mg/kg

Reference: patent US6537977B1, “Anti-inflammatory agent” (Seikagaku Corporation, priority 1995, dated 2003)
